Data on 25 compounds can be found in patent publication US8901118B2, “Compounds and methods for kinase modulation, and indications therefor” (Plexxikon Inc., priority 2010, dated 2014).

SMILES strings stand for the structures.

The test system of experiment [1] is BCR-FMS BaF3 cells. As to the kind of experiment: Splenomegaly mouse model, BCR-FMS BaF3 cells. As to conditions: dosed once per day at 10 mg per kg. It is filed as in vivo. How it is done: BaF3 cells are engineered with any of BCR-FMS, BCR-TRK1 or BCR-TRK2 to assess in vivo inhibitory effects of Fms, TrkA or TrkB inhibition, respectively. BaF3 cells are maintained in growth media (RPMI containing 10% FBS, 1% PenStrep, 1% NEAA, and 1% L-Glutamine, supplemented with 5% murine IL-3 and 1 mg/mL G418). Four days prior to start, 2×10^6 cells are inoculated into a T150 vented flask using the growth media and incubated at 37° C. in 5% CO2 for three days. One day prior to start, cells are collected by centrifugation and are suspended in growth media without IL-3. On the day of cell implant, the cells are collected by centrifugation, rinsed 3×20 mL with RPMI, then are suspended in 5.4 mL of media and counted, then adjusted with additional RPMI as needed to give 5×10^7 cells/mL. On day 1, female nu/nu mice at 5-6 weeks of age are injected intravenously with BaF3 cells injected injecting 0.1 mL (5×10^6) cells in the tail vein (mice without cell injected are included as control group). Compound stocks in dimethylsulfoxide are stored at room temperature protected from light. Stocks are diluted prior to dosing, diluting 22 μL of compound stock into 858 μL of diluent (or 50 μL into 1950 μL) to provide vehicle of 1.0% Polysorbate 80, 0.5% hydroxypropyl methyl cellulose, with final dimethylsulfoxide at 2.5% in all dosing suspensions and vehicle control. Dosing suspension is prepared prior to use, mixing by inversion and sonication in a water bath to make a uniform suspension. On days 10-18, mice are treated with vehicle only or the desired level of compound in vehicle, ˜0.2 mL per 25 gm mouse, once a day by oral gavage, or in some instances, twice per day. On day 18, mice are administered a final dose and two hours later a plasma sample is taken. At four hours following the final dose, mice are sacrificed, an additional plasma sample is collected and mouse spleens are removed and weighed. The average spleen weight of vehicle control group mice is compared to the average spleen weight of the test compound mice. Percent spleen growth inhibition is calculated as 100×[(spleen weight vehicle control-spleen weight test compound)/spleen weight vehicle control]. In some instances, the compounds were not tested in all of the assays as indicated by NA in the table below.

The target of experiment [2] is TrkC kinase (Homo sapiens, UniProt Q16288). As to the kind of experiment: TrkC kinase biochemical activity assay (similar to TrkA assay). As to conditions: read-out: Biochemical Inhibition IC50 TrkC. How it is done: In one assay the biochemical activity IC50 values are determined with respect to inhibition of TrkA kinase activity, where inhibition of phosphorylation of a peptide substrate is measured as a function of compound concentration. Compounds to be tested, dissolved in DMSO (1 μL), are added to a white 384-well plate (Costar #3705). Working stocks of TrkA kinase (UBI), biotin-(E4Y)10 substrate (Upstate Biotech, Cat#12-440), and ATP (Sigma, Cat#A-3377) are prepared in 25 mM Hepes pH 7.5, 10 mM MnCl2, 1 mM DTT, 0.01% BSA, and 0.01% Tween-20. All components are added to the 384-well plate for a final concentration of 1 ng/well TrkA, 30 nM biotin-(E4Y)10 and 100 μM ATP in a volume of 20 μL. Each sample is at 5% DMSO. The plate is shaken for 1 minute at 1200 rpm, spun for 1 minute at 1000 rpm, then incubated for 40 minutes at room temperature. Just before use, working stocks of donor and acceptor beads from the AlphaScreen PY20 Detection Kit (PerkinElmer, Cat#676601M) are prepared in 25 mM Hepes pH 7.5, 100 mM EDTA. 0.01% BSA. Donor Beads solution (Streptavidin beads) is added (5 μL) to each well to final bead concentration of 10 μg/mL. The plate is incubated at room temperature for 20 minutes. Acceptor Beads solution (PY20 coated beads) are then added to each well (5 μL) to a final concentration of bead at 10 μg/mL. The plates are incubated at room temperature for 60 minutes. Fluorescence signal is recorded on the Envision reader. Phosphorylated substrate results in binding of the PY20 antibody and association of the donor and acceptor beads such that signal correlates with kinase activity. The signal vs. compound concentration is used to determine the IC50. Similar assays are used for TrkB and Trk C kinase.
Chain of TrkC kinase (Q16288 32-839): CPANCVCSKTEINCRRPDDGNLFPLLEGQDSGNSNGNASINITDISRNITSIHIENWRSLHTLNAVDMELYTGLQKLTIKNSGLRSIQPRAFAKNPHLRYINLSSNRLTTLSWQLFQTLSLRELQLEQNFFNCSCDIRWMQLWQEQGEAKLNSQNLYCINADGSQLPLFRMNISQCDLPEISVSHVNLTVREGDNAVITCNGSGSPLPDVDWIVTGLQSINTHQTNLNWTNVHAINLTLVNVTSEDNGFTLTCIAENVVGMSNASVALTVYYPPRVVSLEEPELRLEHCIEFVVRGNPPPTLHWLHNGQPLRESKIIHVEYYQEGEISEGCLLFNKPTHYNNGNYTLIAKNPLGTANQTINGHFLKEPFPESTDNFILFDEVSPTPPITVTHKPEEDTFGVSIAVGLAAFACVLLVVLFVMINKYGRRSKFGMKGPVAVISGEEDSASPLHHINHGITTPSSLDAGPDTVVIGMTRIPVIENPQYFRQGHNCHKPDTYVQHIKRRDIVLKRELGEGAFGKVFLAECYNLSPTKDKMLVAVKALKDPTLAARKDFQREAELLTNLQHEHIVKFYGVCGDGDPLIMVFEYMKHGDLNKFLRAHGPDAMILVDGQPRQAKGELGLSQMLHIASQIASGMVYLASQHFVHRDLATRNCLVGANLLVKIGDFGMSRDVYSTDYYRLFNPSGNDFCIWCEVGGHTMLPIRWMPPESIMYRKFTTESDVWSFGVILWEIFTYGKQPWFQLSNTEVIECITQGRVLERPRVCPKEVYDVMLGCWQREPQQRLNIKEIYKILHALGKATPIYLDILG

With `FC1(F)CCC(Nc2ncc(Cc3c[nH]c4ncc(Cl)cc34)cn2)CC1` [Compound P-3004], the “% spleen growth inhibition, Fms” value in experiment [1] worked out at 43%.
On to `COc1ccc(Nc2ncc(Cc3c[nH]c4ncc(C)cc34)cn2)cn1` [Compound P-3020, (6-Methoxy-pyridin-3-yl)-[5-(5-methyl-1H-pyrrolo[2,3-b]pyridin-3-ylmethyl)-pyrimidin-2-yl]-amine], for which, in experiment [2], the 50% inhibitory concentration (IC50) was under 1000 nM.
As to `COc1ccc(Nc2ncc(Cc3c[nH]c4ncc(C)cc34)cn2)cc1` [Compound P-3021, (4-Methoxy-phenyl)-[5-(5-methyl-1H-pyrrolo[2,3-b]pyridin-3-ylmethyl)-pyrimidin-2-yl]-amine], in experiment [2], the IC50 is under 1000 nM.
The same measure, in the same setting: the value for `COc1cc(Nc2ncc(Cc3c[nH]c4ncc(C)cc34)cn2)ccc1F` [Compound P-3022, (4-Fluoro-3-methoxy-phenyl)-[5-(5-methyl-1H-pyrrolo[2,3-b]pyridin-3-ylmethyl)-pyrimidin-2-yl]-amine] was under 1000 nM; that for `CCCOc1ccc(Nc2ncc(Cc3c[nH]c4ncc(C)cc34)cn2)cc1` [Compound P-3024, [5-(5-Methyl-1H-pyrrolo[2,3-b]pyridin-3-ylmethyl)-pyrimidin-2-yl]-(4-propoxy-phenyl)-amine] was over 1000 nM; that for `CCc1ccc(Nc2ncc(Cc3c[nH]c4ncc(C)cc34)cn2)cc1` [Compound P-3025, (4-Ethyl-phenyl)-[5-(5-methyl-1H-pyrrolo[2,3-b]pyridin-3-ylmethyl)-pyrimidin-2-yl]-amine] was under 10 nM.
As to `CCOc1ccc(Nc2ncc(Cc3c[nH]c4ncc(C)cc34)cn2)cc1` [Compound P-3026, (4-Ethoxy-phenyl)-[5-(5-methyl-1H-pyrrolo[2,3-b]pyridin-3-ylmethyl)-pyrimidin-2-yl]-amine], the IC50 in experiment [2] is under 100 nM.
As for `Cc1cnc2[nH]cc(Cc3cnc(Nc4cc(-c5ccc(F)cc5)n[nH]4)nc3)c2c1` [Compound P-3028, [5-(4-Fluoro-phenyl)-2H-pyrazol-3-yl]-[5-(5-methyl-1H-pyrrolo[2,3-b]pyridin-3-ylmethyl)-pyrimidin-2-yl]-amine], the half-maximal inhibitory concentration (IC50) in experiment [2] was under 100 nM.
Same read-out and setting: the figure for `Cc1cnc2[nH]cc(Cc3cnc(Nc4cc(C(C)(C)C)n[nH]4)nc3)c2c1` [Compound P-3029, (5-tert-Butyl-2H-pyrazol-3-yl)-[5-(5-methyl-1H-pyrrolo[2,3-b]pyridin-3-ylmethyl)-pyrimidin-2-yl]-amine] is under 1000 nM.
As for `Cc1cnc2[nH]cc(Cc3cnc(Nc4ccc(C(C)(C)C)cc4)nc3)c2c1` [Compound P-3030, (4-tert-Butyl-phenyl)-[5-(5-methyl-1H-pyrrolo[2,3-b]pyridin-3-ylmethyl)-pyrimidin-2-yl]-amine amine], the half-inhibitory concentration (IC50) in experiment [2] was under 10 nM.
As to `Cc1cnc2[nH]cc(Cc3cnc(Nc4ccc(C(O)(C(F)(F)F)C(F)(F)F)cc4)nc3)c2c1` [Compound P-3031, 1,1,1,3,3,3-Hexafluoro-2-{4-[5-(5-methyl-1H-pyrrolo[2,3-b]pyridin-3-ylmethyl)-pyrimidin-2-ylamino]-phenyl}-propan-2-ol], the IC50 in experiment [2] is under 100 nM.
As to `Cc1cnc2[nH]cc(Cc3cnc(Nc4cc(C5CC5)n[nH]4)nc3)c2c1` [Compound P-3032, (5-Cyclopropyl-2H-pyrazol-3-yl)-[5-(5-methyl-1H-pyrrolo[2,3-b]pyridin-3-ylmethyl)-pyrimidin-2-yl]-amine], in experiment [2], the half-maximal inhibitory concentration (IC50) is over 1000 nM.
`CSc1ccc(Nc2ncc(Cc3c[nH]c4ncc(C)cc34)cn2)cc1` [Compound P-3033, [5-(5-Methyl-1H-pyrrolo[2,3-b]pyridin-3-ylmethyl)-pyrimidin-2-yl]-(4-methylsulfanyl-phenyl)-amine]: in experiment [2], the half-maximal inhibitory concentration (IC50) was under 100 nM.
On the same count and under the same terms, the value for `Cc1cnc2[nH]cc(Cc3cnc(Nc4ccc(S(C)(=O)=O)cc4)nc3)c2c1` [Compound P-3034, (4-Methanesulfonyl-phenyl)-[5-(5-methyl-1H-pyrrolo[2,3-b]pyridin-3-ylmethyl)-pyrimidin-2-yl]-amine] was under 1000 nM.
For the compound `CCn1ccc(Nc2ncc(Cc3c[nH]c4ncc(C)cc34)cn2)n1` [Compound P-3035, (1-Ethyl-1H-pyrazol-3-yl)-[5-(5-methyl-1H-pyrrolo[2,3-b]pyridin-3-ylmethyl)-pyrimidin-2-yl]-amine], the concentration for half-maximal inhibition (IC50) in experiment [2] was under 1000 nM.
Regarding `CCn1cc(Nc2ncc(Cc3c[nH]c4ncc(C)cc34)cn2)cn1` [Compound P-3036, (1-Ethyl-1H-pyrazol-4-yl)-[5-(5-methyl-1H-pyrrolo[2,3-b]pyridin-3-ylmethyl)-pyrimidin-2-yl]-amine], the IC50 in experiment [2] was under 1000 nM.
Regarding `CCOc1ccc(Nc2ccc(C(=O)c3c[nH]c4ncc(C)cc34)c(F)n2)cn1` [Compound P-3045, [6-(6-ethoxy-pyridin-3-ylamino)-2-fluoro-pyridin-3-yl]-(5-methyl-1H-pyrrolo[2,3-b]pyridin-3-yl)-methanone], the “% spleen growth inhibition, Fms” value in experiment [1] was found to be 11%.
For `COc1ccc(Nc2ccc(Cc3c[nH]c4ncnc(OC)c34)c(F)n2)cn1` [Compound P-4001, [6-Fluoro-5-(4-methoxy-7H-pyrrolo[2,3-d]pyrimidin-5-ylmethyl)-pyridin-2-yl]-(6-methoxy-pyridin-3-yl)-amine], the IC50 in experiment [2] is under 10 nM.
For `CCOc1ncnc2[nH]cc(Cc3ccc(Nc4cnn(CC)c4)nc3F)c12` [Compound P-4012, [5-(4-Ethoxy-7H-pyrrolo[2,3-d]pyrimidin-5-ylmethyl)-6-fluoro-pyridin-2-yl]-(1-ethyl-1H-pyrazol-4-yl)-amine], the “% spleen growth inhibition, Fms” value in experiment [1] was found to be 24%.
For the compound `CCOc1ccc(Nc2ccc(Cc3c[nH]c4ncnc(C5CC5)c34)c(F)n2)cn1` [Compound P-4026, [5-(4-Cyclopropyl-7H-pyrrolo[2,3-d]pyrimidin-5-ylmethyl)-6-fluoro-pyridin-2-yl]-(6-ethoxy-pyridin-3-yl)-amine], the “% spleen growth inhibition, Fms” value in experiment [1] turned out to be 41%.
In the case of `CCOc1ccc(Nc2ccc(C(=O)c3c[nH]c4ncnc(C5CC5)c34)c(F)n2)cn1` [Compound P-4027, (4-Cyclopropyl-7H-pyrrolo[2,3-d]pyrimidin-5-yl)-[6-(6-ethoxy-pyridin-3-ylamino)-2-fluoro-pyridin-3-yl]-methanone], the “% spleen growth inhibition, Fms” value in experiment [1] is recorded as −1.4%.
With `CCc1ccc(Nc2ccc(C(=O)c3c[nH]c4ncnc(C5CC5)c34)c(F)n2)cn1` [Compound P-4029, (4-Cyclopropyl-7H-pyrrolo[2,3-d]pyrimidin-5-yl)-[6-(6-ethyl-pyridin-3-ylamino)-2-fluoro-pyridin-3-yl]-methanone], the “% spleen growth inhibition, Fms” value in experiment [1] turned out to be 66%.
Still for that read-out and setting: the value for `Cc1ccc(Nc2ccc(C(=O)c3c[nH]c4ncnc(C5CC5)c34)c(F)n2)cn1` [Compound P-4031, (4-Cyclopropyl-7H-pyrrolo[2,3-d]pyrimidin-5-yl)-[2-fluoro-6-(6-methyl-pyridin-3-ylamino)-pyridin-3-yl]-methanone] was 29%.
For the compound `Fc1nc(NC2CCC(F)(F)CC2)ccc1Cc1c[nH]c2ncnc(NCC(F)(F)F)c12` [Compound P-4128, 5-[[6-[(4,4-difluorocyclohexyl)amino]-2-fluoro-3-pyridyl]methyl]-N-(2,2,2-trifluoroethyl)-7H-pyrrolo[2,3-d]pyrimidin-4-amine], the “% spleen growth inhibition, Fms” value in experiment [1] is recorded as 15%.
`Fc1nc(Nc2ccc(C3CC3)nc2)ccc1Cc1c[nH]c2ncnc(NCC(F)(F)F)c12` [Compound P-4130, 5-[[6-[(6-cyclopropyl-3-pyridyl)amino]-2-fluoro-3-pyridyl]methyl]-N-(2,2,2-trifluoroethyl)-7H-pyrrolo[2,3-d]pyrimidin-4-amine]: in experiment [1], the “% spleen growth inhibition, Fms” value is 70%.

A word on the IC50: it is the concentration needed to halve the response being measured.
